One compound from patent US20210113529A1, “MEDICINE FOR PREVENTING OR TREATING OPHTHALMIC DISEASE ASSOCIATED WITH ENHANCED INTRAOCULAR NEOVASCULARIZATION AND/OR INTRAOCULAR VASCULAR PERMEABILITY” (KYOTO UNIVERSITY, priority 2018, published 2021) can be followed below.

What all share (assay type): in vivo, mice
For test [1], the system named is laser-induced choroidal neovascularization (CNV) model. In words: Laser-induced CNV model: area of CNV in choroidal flat mount. The following applies: Day 14. As to the method: After fluorescence fundus photography had been performed as described above in the section (1), 0.5 mL of fluorescein isothiocyanate dextran (FITC-dextran; 20 mg/mL, Sigma-Aldrich) was administered into the tail vein of the mice. The mice were euthanized by cervical dislocation, and the eyeball was extirpated. The extirpated eyeball was fixed in a 4% paraformaldehyde phosphate buffer for 12 hours. After that, the cornea and lens were excised under a microscope, and the remaining vitreous artery was removed with forceps. Further, the retina was removed, and the choroid was notched 8 points and embedded with Fluoromount (Diagnostic BioSystems) in a flat state to generate a choroidal flat mount specimen. The choroidal flat mount was photographed using a confocal laser scanning microscope (FLUOVIEW FV10i; Olympus, Tokyo, Japan). Next, on the basis of the photographed image, the CNV was encircled using analysis software OLYMPUS FLUOVIEW FV10i (Olympus), and the area thereof was determined as the area of CNV (μm^2). All analyses were performed in a blinded manner. After fluorescence fundus photography had been performed as described above in the section (1), a choroidal flat mount specimen was generated by the same method as in Example 1. The choroidal flat mount was photographed using an all-in-one fluorescence microscope (BZ-X710; Keyence, Osaka, Japan). Next, on the basis of the photographed image, the CNV was encircled using image editing software Image J, and the area thereof was determined as the area of CNV (μm^2). All analyses were performed in a blinded manner.

Test [2] deals with retinal vein occlusion (RVO) model. Kind of test: Retinal vein occlusion (RVO) model, oral: thickness of retinal inner nuclear layer (INL). The following applies: dose of at least 0.03 mg/kg or more, 12 hours before and immediately after laser irradiation, 24 hours after irradiation. As to the method:
(§1) Eight-week-old mice (Japan SLC, Inc., ddy strain) were anesthetized by intramuscularly administering 10 mL/kg of a mixed anesthetic solution diluted so as to contain ketamine (120 mg/kg) and xylazine (6 mg/kg). After that, 0.15 mL of rose bengal (20 mg/kg; WAKO) was administered into the tail vein, and a vein three head systems away from the optic nerve head of the right eye of the mice was irradiated with a laser to occlude a retinal vein. For the occlusion, the laser irradiation was performed 10 times to 15 times per vein. For the laser irradiation, an attachment of a fundus photography apparatus Micron 4 (Phoenix Research Laboratories, Inc., Pleasanton, Calif., USA) was used (wavelength: 532 nm, spot size: 50 μm, irradiation time: 5,000 ms, laser output: 50 mW). Three veins were occluded per eye, and it was confirmed with photographs of the fundus that the laser-irradiated veins had been completely occluded. […]
After 24 hours from the laser irradiation, the mice were euthanized by cervical dislocation, the eyeball was extirpated, and histological evaluation was performed by a hematoxylin-eosin staining method. In addition, the thickness of the retinal inner nuclear layer (INL) was measured at intervals of 240 μm on both sides, i.e., ear side and nose side from the center of the optic nerve head. […]

For test [3] the test system is unchanged. In words: RVO model: retinal non perfusion area. As to the method: as §1, with “retinal vein. Thus, a retinal non perfusion area was generated. For the” for “retinal vein. For the”
The retinal flat mount specimen was photographed under a fluorescence microscope (BX50, Olympus) using a high-sensitivity cooling CCD camera (DP30BW, Olympus) through imaging software Metamorph (Universal Imaging Corp., Downingtown, Pa., USA) on an XY motor-operated stage (Sigma Koki Co., Ltd., Tokyo, Japan). […] The ratio of the retinal non perfusion area was quantified using analysis software in Metamorph. […]

In the case of `C[C@H](Oc1ccc(-c2nc(-c3ccc4[nH]cnc4c3)no2)cc1C(F)(F)F)C(F)(F)F.Cl` [Compound 1, 5-{5-[3-(trifluoromethyl)-4-{[(2S)-1,1,1-trifluoropropan-2-yl]oxy}phenyl]-1,2,4-oxadiazol-3-yl}-1H-benzimidazole monohydrochloride], the “area of CNV” value in test [1] (0.03 mg/kg orally once daily) was “a decrease in area of CNV”; in test [1] (0.3 mg/kg orally once daily) it was “a significant decrease was found”. Further, the “reduction ratio of the area of CNV” value in test [1] (0.3 mg/kg orally once daily) was found to be 34%. Moreover, the “thickening of the INL (retinal edema)” value in test [2] is “ameliorated the thickening of the INL”. Besides, the “enlargement of the non perfusion area” value is “significantly reduced the enlargement of the non perfusion area” in test [3] (early administration: 0.3 mg/kg orally 12 hours before and immediately after laser irradiation); “significantly reduced the enlargement of the non perfusion area” in test [3] (late administration: 0.3 mg/kg orally twice at an interval of 12 hours on the 7th day after laser irradiation).
